The assay concerns the target α7-subtype of nicotinic receptors (Rattus norvegicus, UniProt Q05941). In words: biochemical. Format: binding.

Counter-ions that a name gives are not always drawn.

α7-subtype of nicotinic receptors, sequence (Q05941 23-502): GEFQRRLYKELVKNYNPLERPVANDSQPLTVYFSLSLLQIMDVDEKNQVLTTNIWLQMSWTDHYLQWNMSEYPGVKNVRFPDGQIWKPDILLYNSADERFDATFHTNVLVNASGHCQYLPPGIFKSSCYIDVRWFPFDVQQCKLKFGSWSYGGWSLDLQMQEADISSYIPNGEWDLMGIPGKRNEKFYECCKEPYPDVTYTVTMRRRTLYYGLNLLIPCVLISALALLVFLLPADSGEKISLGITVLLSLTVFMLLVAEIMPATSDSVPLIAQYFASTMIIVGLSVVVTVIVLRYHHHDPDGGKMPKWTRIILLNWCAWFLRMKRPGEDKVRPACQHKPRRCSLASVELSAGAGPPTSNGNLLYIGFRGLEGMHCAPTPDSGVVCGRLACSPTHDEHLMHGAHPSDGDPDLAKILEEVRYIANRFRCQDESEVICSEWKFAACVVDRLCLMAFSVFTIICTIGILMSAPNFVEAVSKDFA

Regarding `c1ccc2c(c1)oc1c(-c3nnc(N4CCN5CCC4CC5)o3)cccc12` [Compound 1, 4-(5-Dibenzofuran-4-yl-[1,3,4]oxadiazol-2-yl)-1,4-diaza-bicyclo[3.2.2]nonane fumaric acid salt], the half-inhibitory concentration (IC50) is 16 nM.

Values taken from patent US20120028968A1 (priority 2009, published 2012).
